Tests used:
[1] = system: Monocotyledonous and dicotyledonous test plants; experiment: Herbicidal action before emergence of the plants (pre-emergence action), greenhouse pot test, 9-level rating after 4 weeks; assay type: in vivo; conditions: 250 g/ha, rated after 4 weeks, 9-level scale
Outline: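 Compounds applied pre-emergence as a spray (500 l water/ha) of aqueous suspension or emulsion onto soil immediately after sowing mono- and dicot species in pots. Greenhouse-grown; damage rated after 4 weeks on a 9-level scale (1=complete damage, 9=no effect).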

[2] = system: Monocotyledonous and dicotyledonous test plants; experiment: Post-emergence herbicidal action, greenhouse pot test, sprayed at the 2- to 3-leaf stage, 9-level rating after 2 to 3 weeks; assay type: in vivo; conditions: 250 g/ha, rated after 2 to 3 weeks, 9-level scale
Outline: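 Plants grown in standard soil in pots; test substances sprayed at the 2- to 3-leaf stage at optimum dosage (500 l water/ha) as aqueous suspension or emulsion from formulated concentrates. Plants then kept in the greenhouse under optimum conditions; rated after 2 to 3 weeks on a 9-level scale (1=complete damage, 9=no effect).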

## CC(=O)OCc1nc(C(F)(F)F)ccc1C(=O)C1=C(O)C2CCC(C2)C1=O.[K+] (centres unmarked)
other
  melting point: 145 to 150 °C

## COCc1nc(C(F)(F)F)ccc1C(=O)c1c(C)nn(C)c1O [1.001]
other
  melting point: 138 to 140 °C

## COCCOCc1nc(C(F)(F)F)ccc1C(=O)C1=C(O)C(C)(C)C(=O)C(C)(C)C1=O [1.012]
other
  melting point: 99 to 100 °C

## O=C(C1=C(O)C2CCC(C2)C1=O)c1ccc(C(F)(F)F)nc1COCC1CO1 (centres unmarked) [1.015]
other
  melting point: 54 to 56 °C

## C#CCOCc1nc(C(F)(F)F)ccc1C(=O)C1=C(O)C2CCC(C2)C1=O (centres unmarked) [1.016]
other
  melting point: 71 to 74 °C

## COCOCc1nc(C(F)(F)F)ccc1C(=O)C1=C(O)C2CCC(C2)C1=O (centres unmarked) [1.017]
other
  melting point: 95 to 98 °C

## C=CCOCc1nc(C(F)(F)F)ccc1C(=O)C1=C(O)C2CCC(C2)C1=O (centres unmarked) [1.018]
other
  melting point: 53 to 55 °C

## COCc1nc(C(F)(F)F)ccc1C(=O)c1cnn(C)c1O [1.019]
other
  melting point: 32 to 34 °C

## CCOCc1nc(C(F)(F)F)ccc1C(=O)c1cnn(C)c1O [1.020]
other
  melting point: 32 to 33 °C

## CCOCCOCc1nc(C(F)(F)F)ccc1C(=O)c1cnn(C)c1O [1.022]
other
  melting point: 38 to 39 °C

## COc1ccccc1OCc1nc(C(F)(F)F)ccc1C(=O)C1=C(O)C2CCC(C2)C1=O (centres unmarked) [1.028]
other
  melting point: 113 to 115 °C

## COC(=O)COCc1nc(C(F)(F)F)ccc1C(=O)C1=C(O)C2CCC(C2)C1=O (centres unmarked) [1.031]
other
  melting point: 106 to 107 °C

## CC(=O)OCCOCc1nc(C(F)(F)F)ccc1C(=O)C1=C(O)C2CCC(C2)C1=O (centres unmarked) [1.050]
other
  melting point: 90 to 93 °C

## CCCOCCOCc1nc(C(F)(F)F)ccc1C(=O)C1=C(O)C2CCC(C2)C1=O (centres unmarked) [1.052]
other
  melting point: 41 to 43 °C

## O=C(OCCOCc1nc(C(F)(F)F)ccc1C(=O)C1=C(OC(=O)c2ccccc2)C2CCC(C2)C1=O)c1ccccc1 (centres unmarked) [1.055]
other
  melting point: 96 to 98 °C

## CC(C)(C)C(=O)OC1=C(C(=O)c2ccc(C(F)(F)F)nc2COCCO)C(=O)C2CCC1C2 (centres unmarked) [1.059]
other
  melting point: 79 to 81 °C

## O=C(C1=C(O)C2CCC(C2)C1=O)c1ccc(C(F)(F)F)nc1COCCOC1CCCCO1 (centres unmarked) [A842-B52]
[1]
  Pre-emergence action rating, Abutilon: 2
  Pre-emergence action rating, Amaranthus: 2
  Pre-emergence action rating, Chenop.: 1
  Pre-emergence action rating, Digitaria: 6
  Pre-emergence action rating, Echino.: 2
  Pre-emergence action rating, Panicum: 1
[2]
  Post-emergence action rating, Abutilon: 3
  Post-emergence action rating, Amaranth: 2
  Post-emergence action rating, Chenop.: 1
  Post-emergence action rating, Digitaria: 3
  Post-emergence action rating, Echino.: 5
  Post-emergence action rating, Ipopur.: 3
  Post-emergence action rating, Panicum: 3
  Post-emergence action rating, Xanth.: 3

## CCCCCCCC(=O)OCc1nc(C(F)(F)F)ccc1C(=O)C1=C(O)C2CCC(C2)C1=O (centres unmarked) [A843-B52]
[1]
  Pre-emergence action rating, Abutilon: 1
  Pre-emergence action rating, Amaranthus: 1
  Pre-emergence action rating, Chenop.: 1
  Pre-emergence action rating, Digitaria: 2
  Pre-emergence action rating, Echino.: 2
  Pre-emergence action rating, Panicum: 1
[2]
  Post-emergence action rating, Abutilon: 3
  Post-emergence action rating, Amaranth: 3
  Post-emergence action rating, Chenop.: 1
  Post-emergence action rating, Digitaria: 3
  Post-emergence action rating, Echino.: 3
  Post-emergence action rating, Ipopur.: 6
  Post-emergence action rating, Panicum: 2
  Post-emergence action rating, Xanth.: 3

## O=C(OCc1nc(C(F)(F)F)ccc1C(=O)C1=C(O)C2CCC(C2)C1=O)c1ccccc1 (centres unmarked) [A844-B52]
[1]
  Pre-emergence action rating, Abutilon: 1
  Pre-emergence action rating, Amaranthus: 1
  Pre-emergence action rating, Chenop.: 1
  Pre-emergence action rating, Digitaria: 2
  Pre-emergence action rating, Echino.: 2
  Pre-emergence action rating, Panicum: 1
[2]
  Post-emergence action rating, Abutilon: 3
  Post-emergence action rating, Amaranth: 3
  Post-emergence action rating, Chenop.: 1
  Post-emergence action rating, Digitaria: 3
  Post-emergence action rating, Echino.: 4
  Post-emergence action rating, Ipopur.: 3
  Post-emergence action rating, Panicum: 2
  Post-emergence action rating, Xanth.: 3

## O=C(C1=C(O)C2CCC(C2)C1=O)c1ccc(C(F)(F)F)nc1COCCOCC(F)(F)F (centres unmarked) [A845-B52]
[1]
  Pre-emergence action rating, Abutilon: 1
  Pre-emergence action rating, Amaranthus: 1
  Pre-emergence action rating, Chenop.: 1
  Pre-emergence action rating, Digitaria: 1
  Pre-emergence action rating, Echino.: 1
  Pre-emergence action rating, Panicum: 1
[2]
  Post-emergence action rating, Abutilon: 2
  Post-emergence action rating, Amaranth: 2
  Post-emergence action rating, Chenop.: 1
  Post-emergence action rating, Digitaria: 2
  Post-emergence action rating, Echino.: 2
  Post-emergence action rating, Ipopur.: 2
  Post-emergence action rating, Panicum: 2
  Post-emergence action rating, Xanth.: 2

## COCCCOCc1nc(C(F)(F)F)ccc1C(=O)C1=C(O)C2CCC(C2)C1=O (centres unmarked) [A846-B52]
[1]
  Pre-emergence action rating, Abutilon: 2
  Pre-emergence action rating, Amaranthus: 1
  Pre-emergence action rating, Chenop.: 1
  Pre-emergence action rating, Digitaria: 1
  Pre-emergence action rating, Echino.: 1
  Pre-emergence action rating, Panicum: 1
[2]
  Post-emergence action rating, Abutilon: 2
  Post-emergence action rating, Amaranth: 2
  Post-emergence action rating, Chenop.: 2
  Post-emergence action rating, Digitaria: 2
  Post-emergence action rating, Echino.: 2
  Post-emergence action rating, Ipopur.: 1
  Post-emergence action rating, Panicum: 1
  Post-emergence action rating, Xanth.: 2

## O=C(C1=C(O)C2CCC(C2)C1=O)c1ccc(C(F)(F)F)nc1COCCCO (centres unmarked) [A847-B52]
[1]
  Pre-emergence action rating, Abutilon: 4
  Pre-emergence action rating, Amaranthus: 1
  Pre-emergence action rating, Chenop.: 4
  Pre-emergence action rating, Digitaria: 3
  Pre-emergence action rating, Echino.: 2
  Pre-emergence action rating, Panicum: 1
[2]
  Post-emergence action rating, Abutilon: 2
  Post-emergence action rating, Amaranth: 3
  Post-emergence action rating, Chenop.: 1
  Post-emergence action rating, Digitaria: 2
  Post-emergence action rating, Echino.: 1
  Post-emergence action rating, Ipopur.: 4
  Post-emergence action rating, Panicum: 1
  Post-emergence action rating, Xanth.: 2

## O=C(C1=C(O)C2CCC(C2)C1=O)c1ccc(C(F)(F)F)nc1COCC1CCCO1 (centres unmarked) [A848-B52]
[1]
  Pre-emergence action rating, Abutilon: 7
  Pre-emergence action rating, Amaranthus: 1
  Pre-emergence action rating, Chenop.: 1
  Pre-emergence action rating, Digitaria: 1
  Pre-emergence action rating, Echino.: 1
  Pre-emergence action rating, Panicum: 1
[2]
  Post-emergence action rating, Abutilon: 2
  Post-emergence action rating, Amaranth: 1
  Post-emergence action rating, Chenop.: 1
  Post-emergence action rating, Digitaria: 2
  Post-emergence action rating, Echino.: 2
  Post-emergence action rating, Ipopur.: 2
  Post-emergence action rating, Panicum: 2
  Post-emergence action rating, Xanth.: 2

## N#CCCOCc1nc(C(F)(F)F)ccc1C(=O)C1=C(O)C2CCC(C2)C1=O (centres unmarked) [A849-B52]
[1]
  Pre-emergence action rating, Abutilon: 2
  Pre-emergence action rating, Amaranthus: 1
  Pre-emergence action rating, Chenop.: 1
  Pre-emergence action rating, Digitaria: 2
  Pre-emergence action rating, Echino.: 2
  Pre-emergence action rating, Panicum: 1
[2]
  Post-emergence action rating, Abutilon: 2
  Post-emergence action rating, Amaranth: 2
  Post-emergence action rating, Chenop.: 2
  Post-emergence action rating, Digitaria: 2
  Post-emergence action rating, Echino.: 3
  Post-emergence action rating, Ipopur.: 2
  Post-emergence action rating, Panicum: 2
  Post-emergence action rating, Xanth.: 2

## O=C(C1=C(O)C2CCC(C2)C1=O)c1ccc(C(F)(F)F)nc1COCCCl (centres unmarked) [A850-B52]
[1]
  Pre-emergence action rating, Abutilon: 1
  Pre-emergence action rating, Amaranthus: 2
  Pre-emergence action rating, Chenop.: 1
  Pre-emergence action rating, Digitaria: 2
  Pre-emergence action rating, Echino.: 1
  Pre-emergence action rating, Panicum: 1
[2]
  Post-emergence action rating, Abutilon: 2
  Post-emergence action rating, Amaranth: 2
  Post-emergence action rating, Chenop.: 1
  Post-emergence action rating, Digitaria: 2
  Post-emergence action rating, Echino.: 2
  Post-emergence action rating, Ipopur.: 2
  Post-emergence action rating, Panicum: 2
  Post-emergence action rating, Xanth.: 2

## O=C(C1=C(O)C2CCC(C2)C1=O)c1ccc(C(F)(F)F)nc1COC1COCOC1 (centres unmarked) [A851-B52]
[1]
  Pre-emergence action rating, Abutilon: 1
  Pre-emergence action rating, Amaranthus: 1
  Pre-emergence action rating, Chenop.: 1
  Pre-emergence action rating, Digitaria: 1
  Pre-emergence action rating, Echino.: 1
  Pre-emergence action rating, Panicum: 1
[2]
  Post-emergence action rating, Abutilon: 3
  Post-emergence action rating, Amaranth: 2
  Post-emergence action rating, Chenop.: 1
  Post-emergence action rating, Digitaria: 3
  Post-emergence action rating, Echino.: 4
  Post-emergence action rating, Ipopur.: 3
  Post-emergence action rating, Panicum: 3
  Post-emergence action rating, Xanth.: 3

## O=C(C1=C(O)C2CCC(C2)C1=O)c1ccc(C(F)(F)F)nc1COCC1COCO1 (centres unmarked) [A852-B52]
[1]
  Pre-emergence action rating, Abutilon: 4
  Pre-emergence action rating, Amaranthus: 1
  Pre-emergence action rating, Chenop.: 2
  Pre-emergence action rating, Digitaria: 1
  Pre-emergence action rating, Echino.: 1
  Pre-emergence action rating, Panicum: 1
[2]
  Post-emergence action rating, Abutilon: 3
  Post-emergence action rating, Amaranth: 3
  Post-emergence action rating, Chenop.: 1
  Post-emergence action rating, Digitaria: 4
  Post-emergence action rating, Echino.: 4
  Post-emergence action rating, Ipopur.: 3
  Post-emergence action rating, Panicum: 3
  Post-emergence action rating, Xanth.: 3

Source: patent US7378375B1, “Substituted pyridine herbicides” (Syngenta Crop Protection, Inc., priority 2000, dated 2008)
